Assay results published in ChEMBL document CHEMBL6087403 (Bioorg Med Chem Lett, 2025).
Calls of active or inactive are those of the source. No cut-off for these calls is given here.

Legend:
Alpha glucosidase = Alpha glucosidase (Homo sapiens, UniProt O43451+P10253+P14410+Q2M2H8); assay: Inhibition of alpha-glucosidase (unknown origin); assay type: protein assay
[1] = Antioxidant activity assessed as DPPH radical scavenging activity incubated for 1 hr by spectrophotometric analysis; assay type: functional

IC50 (Alpha glucosidase) | IC50 [1] | SMILES | Activity [1]
61.1 µM | 67.8 µM | CC1=C(C(=O)[C@@H](C)c2ccccc2)C(c2ccccc2)NC(=S)N1 (some centres not stated) | –
61.1 µM | 68.2 µM | CCOC(=O)C1=C(C)n2nnnc2N(C)C1c1ccc(C)cc1.Cl.Cl (configuration not stated) | –
65.1 µM | 55.1 µM | COC(=O)C1=C(C)n2nnnc2N(C)C1c1ccccc1.Cl.Cl (configuration not stated) | –
47.3 µM | – | CC1=C(C(=O)[C@@H](C)c2ccccc2)C(c2ccc(C)cc2)NC(=S)N1 (some centres not stated) | inactive
44.4 µM | 87.3 µM | CCOC(=O)C1=C(C)NC(SC)N(C)C1c1ccc(C)cc1 (configuration not stated) | –
21.5 µM | 29.5 µM | CCOC(=O)C1=C(C)NC(SC)N(C)C1c1cccc(O)c1 (configuration not stated) | –
89.5 µM | 59.8 µM | CC1=C(C(=O)O)C(c2ccccc2)NC(=S)N1 (configuration not stated) | –
72.4 µM | 66 µM | CCOC(=O)C1=C(C)NC(NN)N(C)C1c1ccc([N+](=O)[O-])cc1.Cl.Cl (configuration not stated) | –
62.7 µM | 79.3 µM | CCOC(=O)C1=C(C)NC(NN)N(C)C1c1cccc(O)c1.Cl.Cl (configuration not stated) | –
76.2 µM | 69 µM | CC1=C(C(=O)[C@H](C)c2ccccc2)C(c2ccccc2)NC(=S)N1 (some centres not stated) | –
31.1 µM | 92.1 µM | CCOC(=O)C1=C(C)NC(NN)N(C)C1c1ccccc1.Cl.Cl (configuration not stated) | –
39.4 µM | 33.2 µM | CCOC(=O)C1=C(C)n2nnnc2N(C)C1c1ccccc1.Cl.Cl (configuration not stated) | –
35.9 µM | 38.8 µM | CCOC(=O)C1=C(C)NC(SC)N(C)C1c1cccc(OC)c1OC (configuration not stated) | –
24.2 µM | 21.4 µM | CCOC(=O)C1=C(C)NC(SC)N(C)C1c1ccccc1 (configuration not stated) | –
84.2 µM | 69.5 µM | COC(=O)C1=C(C)NC(SC)N(C)C1c1ccccc1 (configuration not stated) | –
12.5 µM | 45.3 µM | CC1=C(C(=O)O)C(c2ccccc2Cl)NC(=S)N1 (configuration not stated) | –
41.2 µM | – | CC1=C(C(=O)[C@H](C)c2ccccc2)C(c2ccc(C)cc2)NC(=S)N1 (some centres not stated) | inactive
33.3 µM | 61.2 µM | CCOC(=O)C1=C(C)NC(SC)N(C)C1c1ccc([N+](=O)[O-])cc1 (configuration not stated) | –
18.9 µM | 29.8 µM | CC1=C(C(=O)[C@@H](C)c2ccccc2)C(c2ccccc2Cl)NC(=S)N1 (some centres not stated) | –
39.2 µM | 90.8 µM | CC1=C(C(=O)O)C(c2ccc(C)cc2)NC(=S)N1 (configuration not stated) | –
23.3 µM | 31.2 µM | CC1=C(C(=O)[C@H](C)c2ccccc2)C(c2ccccc2Cl)NC(=S)N1 (some centres not stated) | –
71.1 µM | 85.1 µM | CCOC(=O)C1=C(C)NC(NN)N(C)C1c1ccc(C)cc1.Cl.Cl (configuration not stated) | –
45.6 µM | 49.2 µM | CCOC(=O)C1=C(C)n2nnnc2N(C)C1c1cccc(O)c1.Cl.Cl (configuration not stated) | –

SMILES | IC50 (Alpha glucosidase) | IC50 [1] | Activity [1]
COc1ccc(O)c(C(C)(C)C)c1 | – | 44.2 µM | –
